Here are results for 20 compounds from patent US10125134B2 (Mirati Therapeutics, Inc., priority 2016, dated 2018).

For experiment [1], the system named is NCI-H358 cells (express KRas G12C), Phospho-ERK. The experiment in a line: Cellular inhibition of KRas G12C: Phospho-ERK in NCI-H358 cells. It counts as cell-based. The settings on record: Homo sapiens, NCI-H358, 3 h, pERK(Thr202/Tyr204) normalized with GAPDH; NCI-H358 cells; 3 hours; read-out: IC50. In a few lines: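 IC50 derived by 4-parameter fit of GAPDH-normalized pERK(Thr202/Tyr204) signal, as percent of DMSO control. Signal came from in-cell immunodetection with infrared secondaries after 3 h compound exposure of KRas G12C NCI-H358 cells at 0.5% DMSO.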

The next experiment concerns the target KRas G12C (Homo sapiens, UniProt P01116, C118S/C51S/C80L/G12C). In words: KRas G12C Modification Assay (LCMS detection of covalent adduct). It counts as binding. The settings on record: normalized percent of control; tested at 5 μM concentration for 3 hours. In a few lines: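 Covalent modification was read by reverse-phase LC/MS of intact protein after compound exposure, each reaction stopped at its time point with 25 mM acetic acid. Unmodified-protein signal, taken as percent of total, was normalised to untreated protein and reported as POC.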

pIC50: −log10 of the molar value.

As a reminder, the pIC50 is the IC50 on a negative log10 scale, so that one unit is a factor of ten. As to `C=CC(=O)N1CCN(c2nc(OC[C@@H]3CCCN3C)nc3c2CCN(c2ccc(F)c4ccccc24)C3)C[C@@H]1CC#N` [Example 316, 2-((S)-1-acryloyl-4-(7-(4-fluoronaphthalen-1-yl)-2-(((S)-1-methylpyrrolidin-2-yl)methoxy)-5,6,7,8-tetrahydropyrido[3,4-d]pyrimidin-4-yl)piperazin-2-yl)acetonitrile], the pIC50 in experiment [1] is 6.00 to 10.00. Further, the POC result on KRas G12C is reported as “C (“C”>50% POC)”.
In the case of `C=CC(=O)N1CCN(c2nc(OC[C@@H]3CCCN3C)nc3c2CCN(c2cc(O)cc4ccccc24)C3)C[C@@H]1CC#N` [Example 317, 2-((S)-1-acryloyl-4-(7-(3-hydroxynaphthalen-1-yl)-2-(((S)-1-methylpyrrolidin-2-yl)methoxy)-5,6,7,8-tetrahydropyrido[3,4-d]pyrimidin-4-yl)piperazin-2-yl)acetonitrile], the pIC50 in experiment [1] was 6.00 to 10.00. Besides, the POC result on KRas G12C was “C (“C”>50% POC)”.
The corresponding values for `C=CC(=O)N1CCN(c2nc(OC[C@H]3CCCN3C)nc3c2CCN(c2ccc(F)c4ccccc24)C3)C[C@@H]1CC#N` [Example 318, 2-[(2S)-4-[7-(4-fluoro-1-naphthyl)-2-[[(2R)-1-methylpyrrolidin-2-yl]methoxy]-6,8-dihydro-5H-pyrido[3,4-d]pyrimidin-4-yl]-1-prop-2-enoyl-piperazin-2-yl]acetonitrile] are 6.00 to 10.00 and “C (“C”>50% POC)”.
The corresponding values for `C=CC(=O)N1CCN(c2nc(OC[C@H]3CCCN3C)nc3c2CCN(c2cccc(Cl)c2C(F)(F)F)C3)C[C@@H]1CC#N` [Example 319, 2-((S)-1-acryloyl-4-(7-(3-chloro-2-(trifluoromethyl)phenyl)-2-(((R)-1-methylpyrrolidin-2-yl)methoxy)-5,6,7,8-tetrahydropyrido[3,4-d]pyrimidin-4-yl)piperazin-2-yl)acetonitrile] are 6.00 to 10.00 and “C (“C”>50% POC)”.
The corresponding values for `C=CC(=O)N1CCN(c2nc(OC[C@@H]3CCCN3C(C)C)nc3c2CCN(c2cccc4ccccc24)C3)C[C@@H]1CC#N` [Example 320, 2-[(2S)-4-[2-[[(2S)-1-isopropylpyrrolidin-2-yl]methoxy]-7-(1-naphthyl)-6,8-dihydro-5H-pyrido[3,4-d]pyrimidin-4-yl]-1-prop-2-enoyl-piperazin-2-yl]acetonitrile] are 6.00 to 10.00 and “C (“C”>50% POC)”.
Regarding `C=CC(=O)N1CCN(c2nc(OC[C@@H]3CCCN3C)nc3c2CCN(c2c(O)cccc2F)C3)[C@@H](C)C1` [Example 321, 1-[(3S)-4-[7-(2-fluoro-6-hydroxy-phenyl)-2-[[(2S)-1-methylpyrrolidin-2-yl]methoxy]-6,8-dihydro-5H-pyrido[3,4-d]pyrimidin-4-yl]-3-methyl-piperazin-1-yl]prop-2-en-1-one], the pIC50 in experiment [1] is under 6.00. Besides, the POC result at KRas G12C was “B (“B”>25% POC−≤50% POC)”.
The corresponding values for `C=CC(=O)N1CCN(c2nc(OC[C@@H]3CCCN3CC)nc3c2CCN(c2ccc(F)c4ccccc24)C3)CC1CC#N` (stereo partly drawn) [Example 322, 2-(1-acryloyl-4-(2-(((S)-1-ethylpyrrolidin-2-yl)methoxy)-7-(4-fluoronaphthalen-1-yl)-5,6,7,8-tetrahydropyrido[3,4-d]pyrimidin-4-yl)piperazin-2-yl)acetonitrile] are 6.00 to 10.00 and “C (“C”>50% POC)”.
The matching figures for `C=CC(=O)N1CCN(c2nc(OC[C@H]3C[C@H](O)CN3C)nc3c2CCN(c2cccc4ccccc24)C3)C[C@@H]1CC#N` [Example 323, 2-[(2S)-4-[2-[[(2R,4S)-4-hydroxy-1-methyl-pyrrolidin-2-yl]methoxy]-7-(1-naphthyl)-6,8-dihydro-5H-pyrido[3,4-d]pyrimidin-4-yl]-1-prop-2-enoyl-piperazin-2-yl]acetonitrile]: 6.00 to 10.00 and “C (“C”>50% POC)”.
The corresponding values for `C=CC(=O)N1CCN(c2nc(OC[C@@H]3CCCN3C)nc3c2CCN(c2cccc(OC)c2C)C3)C[C@@H]1CC#N` [Example 324, 2-[(2S)-4-[7-(3-methoxy-2-methyl-phenyl)-2-[[(2S)-1-methylpyrrolidin-2-yl]methoxy]-6,8-dihydro-5H-pyrido[3,4-d]pyrimidin-4-yl]-1-prop-2-enoyl-piperazin-2-yl]acetonitrile] are 6.00 to 10.00 and “C (“C”>50% POC)”.
In the case of `C=CC(=O)N1CCN(c2nc(OC[C@@H]3CCCN3C)nc3c2CCN(c2ccccc2C#N)C3)C[C@@H]1CC#N` [Example 325, 2-[4-[(3S)-3-(cyanomethyl)-4-prop-2-enoyl-piperazin-1-yl]-2-[[(2S)-1-methylpyrrolidin-2-yl]methoxy]-6,8-dihydro-5H-pyrido[3,4-d]pyrimidin-7-yl]benzonitrile], the pIC50 in experiment [1] is under 6.00. For the same compound, the POC result at KRas G12C is reported as “C (“C”>50% POC)”.
Regarding `C=CC(=O)N1CCN(c2nc(OC[C@@H]3CCCN3C)nc3c2CCN(c2cccc4ccc(C)cc24)C3)C[C@@H]1CC#N` [Example 326, 2-((S)-1-acryloyl-4-(7-(7-methylnaphthalen-1-yl)-2-(((S)-1-methylpyrrolidin-2-yl)methoxy)-5,6,7,8-tetrahydropyrido[3,4-d]pyrimidin-4-yl)piperazin-2-yl)acetonitrile], the pIC50 in experiment [1] is 6.00 to 10.00. At KRas G12C, the POC result is “C (“C”>50% POC)”.
The matching figures for `C=CC(=O)N1CCN(c2nc(OC[C@@H]3C[C@@H](OC)CN3C)nc3c2CCN(c2cccc4ccccc24)C3)C[C@@H]1CC#N` [Example 327, 2-((S)-1-acryloyl-4-(2-(((2S,4R)-4-methoxy-1-methylpyrrolidin-2-yl)methoxy)-7-(naphthalen-1-yl)-5,6,7,8-tetrahydropyrido[3,4-d]pyrimidin-4-yl)piperazin-2-yl)acetonitrile]: 6.00 to 10.00 and “C (“C”>50% POC)”.
The corresponding values for `C=CC(=O)N1CCN(c2nc(OC[C@@H]3CCCN3C)nc3c2CCN(c2cccc(F)c2C(F)(F)F)C3)C[C@@H]1CC#N` [Example 328, 2-((S)-1-acryloyl-4-(7-(3-fluoro-2-(trifluoromethyl)phenyl)-2-(((S)-1-methylpyrrolidin-2-yl)methoxy)-5,6,7,8-tetrahydropyrido[3,4-d]pyrimidin-4-yl)piperazin-2-yl)acetonitrile] are 6.00 to 10.00 and “C (“C”>50% POC)”.
The corresponding values for `C=CC(=O)N1CCN(c2nc(OC[C@H]3CCCN3CCO)nc3c2CCN(c2cccc4ccccc24)C3)C[C@@H]1CC#N` [Example 329, 2-[(2S)-4-[2-[[(2R)-1-(2-hydroxyethyl)pyrrolidin-2-yl]methoxy]-7-(1-naphthyl)-6,8-dihydro-5H-pyrido[3,4-d]pyrimidin-4-yl]-1-prop-2-enoyl-piperazin-2-yl]acetonitrile] are 6.00 to 10.00 and “C (“C”>50% POC)”.
For `C=CC(=O)N1CCN(c2nc(OC[C@@H]3CCCN3C)nc3c2CCN(c2cccc(OC)c2C(F)(F)F)C3)C[C@@H]1CC#N` [Example 330, 2-[(2S)-4-[7-[3-methoxy-2-(trifluoromethyl)phenyl]-2-[[(2S)-1-methylpyrrolidin-2-yl]methoxy]-6,8-dihydro-5H-pyrido[3,4-d]pyrimidin-4-yl]-1-prop-2-enoyl-piperazin-2-yl]acetonitrile], the pIC50 in experiment [1] was 6.00 to 10.00. Besides, at KRas G12C, the POC result was “C (“C”>50% POC)”.
The matching figures for `C=CC(=O)N1CCN(c2nc(OC[C@@H]3C[C@@H](OC)CN3C)nc3c2CCN(c2cccc(Cl)c2C(F)(F)F)C3)C[C@@H]1CC#N` [Example 332, 2-[(2S)-4-[7-[3-chloro-2-(trifluoromethyl)phenyl]-2-[[(2S,4R)-4-methoxy-1-methyl-pyrrolidin-2-yl]methoxy]-6,8-dihydro-5H-pyrido[3,4-d]pyrimidin-4-yl]-1-prop-2-enoyl-piperazin-2-yl]acetonitrile]: 6.00 to 10.00 and “C (“C”>50% POC)”.
With `C=CC(=O)N1CCN(c2nc(OC[C@@H]3CCCN3C)nc3c2CCN(c2cccc4ccc(F)cc24)C3)C[C@@H]1CC#N` [Example 333, 2-[(2S)-4-[7-(7-fluoro-1-naphthyl)-2-[[(2S)-1-methylpyrrolidin-2-yl]methoxy]-6,8-dihydro-5H-pyrido[3,4-d]pyrimidin-4-yl]-1-prop-2-enoyl-piperazin-2-yl]acetonitrile], the pIC50 in experiment [1] was 6.00 to 10.00. The POC entry at KRas G12C is on record as “C (“C”>50% POC)”.
The matching figures for `C=CC(=O)N1CCN(c2nc(OC[C@H]3CCCN3CC)nc3c2CCN(c2cccc4ccccc24)C3)C[C@@H]1CC#N` [Example 334, 2-[(2S)-4-[2-[[(2R)-1-ethylpyrrolidin-2-yl]methoxy]-7-(1-naphthyl)-6,8-dihydro-5H-pyrido[3,4-d]pyrimidin-4-yl]-1-prop-2-enoyl-piperazin-2-yl]acetonitrile]: 6.00 to 10.00 and “C (“C”>50% POC)”.
`C=CC(=O)N1CCN(c2nc(OC[C@@H]3C[C@@H](OC)CN3CC)nc3c2CCN(c2cccc(Cl)c2C(F)(F)F)C3)C[C@@H]1CC#N` [Example 335, 2-[(2S)-4-[7-[3-chloro-2-(trifluoromethyl)phenyl]-2-[[(2S,4R)-1-ethyl-4-methoxy-pyrrolidin-2-yl]methoxy]-6,8-dihydro-5H-pyrido[3,4-d]pyrimidin-4-yl]-1-prop-2-enoyl-piperazin-2-yl]acetonitrile]: the pIC50 in experiment [1] was 6.00 to 10.00. Moreover, the POC entry at KRas G12C is given as “C (“C”>50% POC)”.
With `C=CC(=O)N1C[C@H](C)N(c2nc(OC[C@@H]3CCCN3C)nc3c2CCN(c2cc(O)cc4ccccc24)C3)C[C@H]1C` [Example 336, 1-[(2R,5S)-4-[7-(3-hydroxy-1-naphthyl)-2-[[(2S)-1-methylpyrrolidin-2-yl]methoxy]-6,8-dihydro-5H-pyrido[3,4-d]pyrimidin-4-yl]-2,5-dimethyl-piperazin-1-yl]prop-2-en-1-one], in experiment [1], the negative logarithm of the IC50 (pIC50) is 6.00 to 10.00. On KRas G12C, the POC result is on record as “C (“C”>50% POC)”.
